The target of test [1] is T1, NUAK family SNF1-like kinase 1 (Homo sapiens, UniProt O60285).
T1 sequence (O60285 whole entry): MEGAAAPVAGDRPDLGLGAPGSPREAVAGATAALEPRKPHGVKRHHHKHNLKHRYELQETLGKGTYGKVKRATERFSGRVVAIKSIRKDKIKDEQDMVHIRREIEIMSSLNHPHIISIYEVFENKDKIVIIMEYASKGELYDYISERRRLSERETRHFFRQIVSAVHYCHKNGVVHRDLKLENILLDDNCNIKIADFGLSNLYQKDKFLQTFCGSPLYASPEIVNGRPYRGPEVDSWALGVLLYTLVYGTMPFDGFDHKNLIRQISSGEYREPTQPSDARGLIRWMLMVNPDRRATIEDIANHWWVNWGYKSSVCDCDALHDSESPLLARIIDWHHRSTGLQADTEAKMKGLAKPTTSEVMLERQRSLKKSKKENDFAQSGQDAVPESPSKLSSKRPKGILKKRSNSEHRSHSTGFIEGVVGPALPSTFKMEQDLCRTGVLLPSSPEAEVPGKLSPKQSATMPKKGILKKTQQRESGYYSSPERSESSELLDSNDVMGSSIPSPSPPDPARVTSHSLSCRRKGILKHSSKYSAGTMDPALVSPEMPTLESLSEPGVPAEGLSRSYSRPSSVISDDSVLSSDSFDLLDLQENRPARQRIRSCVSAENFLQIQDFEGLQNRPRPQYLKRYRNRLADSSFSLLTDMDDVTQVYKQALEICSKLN
Nature of the test: Inhibition of N-terminal GST-tagged wild type human NUAK1 expressed in Escherichia coli DH5alpha incubated for 30 mins in presence of gamma-[32P]ATP by cerenkov counting analysis.

In test [2] the target is T1, NUAK family SNF1-like kinase 1. Nature of the test: Inhibition of NUAK1 (unknown origin).
Test [3] can be described thus: Inhibition of N-terminal GST-tagged human NUAK1 A195T mutant expressed in Escherichia coli DH5alpha incubated for 30 mins in presence of gamma-[32P]ATP by cerenkov counting analysis.
Test [4] has as its target T2, NUAK family SNF1-like kinase 1 (Homo sapiens) (UniProt O60285).
T2 sequence (whole entry): T1 sequence (O60285 whole entry)
Nature of the test: Inhibition of NUAK1 (unknown origin) at 1 uM relative to control.

Test [5] has as its target T2, NUAK family SNF1-like kinase 1 (Homo sapiens). The test can be described thus: Inhibition of NUAK1 (unknown origin) at 0.01 uM relative to control.
The target is the same in test [6]. The test can be described thus: Inhibition of NUAK1 (unknown origin) at 0.10 uM relative to control. The settings on record: dose 0.1 µM.
The target in test [7] is Cyclin-dependent kinase 4 (Homo sapiens) (UniProt P11802). The test can be described thus: Inhibition of CDK4 (unknown origin).
Test [8] deals with Proto-oncogene tyrosine-protein kinase receptor Ret (Homo sapiens, UniProt P07949). Nature of the test: Inhibition of RET (unknown origin).
Test [9] deals with T3, NUAK family SNF1-like kinase 2 (Homo sapiens, UniProt Q9H093).
T3 sequence (Q9H093 whole entry): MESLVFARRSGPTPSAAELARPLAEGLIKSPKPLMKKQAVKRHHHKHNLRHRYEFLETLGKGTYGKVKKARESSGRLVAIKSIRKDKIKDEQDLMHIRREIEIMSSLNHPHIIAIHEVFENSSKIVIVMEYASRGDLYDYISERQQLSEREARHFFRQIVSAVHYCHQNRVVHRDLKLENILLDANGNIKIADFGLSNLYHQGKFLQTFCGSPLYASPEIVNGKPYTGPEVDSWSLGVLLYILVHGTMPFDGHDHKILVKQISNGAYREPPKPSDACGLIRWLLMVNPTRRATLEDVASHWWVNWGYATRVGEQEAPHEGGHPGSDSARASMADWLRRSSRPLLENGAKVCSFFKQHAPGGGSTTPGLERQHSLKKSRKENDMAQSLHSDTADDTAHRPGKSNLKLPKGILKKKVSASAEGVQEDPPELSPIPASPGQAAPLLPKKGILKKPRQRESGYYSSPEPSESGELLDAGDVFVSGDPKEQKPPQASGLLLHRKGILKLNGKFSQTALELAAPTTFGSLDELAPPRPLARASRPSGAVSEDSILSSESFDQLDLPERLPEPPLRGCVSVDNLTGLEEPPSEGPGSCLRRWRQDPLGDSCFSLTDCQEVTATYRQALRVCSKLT
The test can be described thus: Inhibition of NUAK2 (unknown origin).

The target in test [10] is T4, Insulin-like growth factor 1 receptor (Homo sapiens, UniProt P08069). Nature of the test: Inhibition of human IGF1R expressed in mouse IGF1R knockout MEF cells. The format is cell-based.
Test [11] addresses T5, Insulin receptor (Homo sapiens, UniProt P06213). Nature of the test: Inhibition of human InsR expressed in mouse IGF1R knockout MEF cells. The format is cell-based.
The target in test [12] is T4, Insulin-like growth factor 1 receptor. The test can be described thus: Binding affinity to human IGF1R expressed in mouse IGF1R knockout MEF cells assessed as dissociation constant. The test is classed as cell-based.
For test [13], the target named is T5, Insulin receptor. Nature of the test: Binding affinity to human InsR expressed in mouse IGF1R knockout MEF cells assessed as dissociation constant. The format is cell-based.
Test [14] has as its target T1, NUAK family SNF1-like kinase 1. The test can be described thus: Inhibition of NUAK1 in HEK293 cells assessed as effect on MYPT1 phosphorylation at Ser445 incubated for 3 mins by immunoblotting analysis. The test is classed as cell-based.
For the next test, the target named is T6, Aurora kinase C (Homo sapiens, UniProt Q9UQB9).
T6 sequence (Q9UQB9 whole entry): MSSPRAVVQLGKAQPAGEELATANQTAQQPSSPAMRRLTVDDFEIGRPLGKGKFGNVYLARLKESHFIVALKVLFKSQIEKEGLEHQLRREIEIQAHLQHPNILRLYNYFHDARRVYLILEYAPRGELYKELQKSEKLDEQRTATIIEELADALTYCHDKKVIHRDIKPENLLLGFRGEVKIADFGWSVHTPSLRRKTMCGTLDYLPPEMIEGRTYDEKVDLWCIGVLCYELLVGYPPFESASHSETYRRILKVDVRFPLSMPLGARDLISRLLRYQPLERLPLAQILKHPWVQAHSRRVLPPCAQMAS
The test can be described thus: Inhibition of Aurora C (unknown origin).

The next test addresses Aurora kinase B (Homo sapiens, UniProt Q96GD4). The test can be described thus: Inhibition of Aurora B (unknown origin).

T5 sequence (P06213 28-758 limits assumed): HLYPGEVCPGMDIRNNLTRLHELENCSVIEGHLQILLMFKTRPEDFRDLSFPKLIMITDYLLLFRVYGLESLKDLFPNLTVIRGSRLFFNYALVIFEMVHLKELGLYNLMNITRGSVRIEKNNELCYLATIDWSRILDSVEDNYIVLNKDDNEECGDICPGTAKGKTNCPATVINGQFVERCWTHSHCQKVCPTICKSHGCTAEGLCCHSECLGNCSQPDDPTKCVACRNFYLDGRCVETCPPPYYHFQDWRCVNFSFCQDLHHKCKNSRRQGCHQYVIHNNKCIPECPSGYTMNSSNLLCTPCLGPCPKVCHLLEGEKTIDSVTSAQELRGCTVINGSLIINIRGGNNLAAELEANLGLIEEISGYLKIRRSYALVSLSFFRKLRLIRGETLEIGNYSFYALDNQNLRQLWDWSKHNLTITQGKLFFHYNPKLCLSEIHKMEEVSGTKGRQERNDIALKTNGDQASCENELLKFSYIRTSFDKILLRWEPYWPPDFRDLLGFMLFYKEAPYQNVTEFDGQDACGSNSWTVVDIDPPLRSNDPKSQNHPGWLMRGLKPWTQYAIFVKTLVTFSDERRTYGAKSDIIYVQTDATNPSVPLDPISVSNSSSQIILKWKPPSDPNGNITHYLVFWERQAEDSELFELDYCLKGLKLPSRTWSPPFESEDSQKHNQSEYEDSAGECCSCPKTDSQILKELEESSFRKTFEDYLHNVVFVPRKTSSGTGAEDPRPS
T5 sequence (P06213 763-1382 limits assumed): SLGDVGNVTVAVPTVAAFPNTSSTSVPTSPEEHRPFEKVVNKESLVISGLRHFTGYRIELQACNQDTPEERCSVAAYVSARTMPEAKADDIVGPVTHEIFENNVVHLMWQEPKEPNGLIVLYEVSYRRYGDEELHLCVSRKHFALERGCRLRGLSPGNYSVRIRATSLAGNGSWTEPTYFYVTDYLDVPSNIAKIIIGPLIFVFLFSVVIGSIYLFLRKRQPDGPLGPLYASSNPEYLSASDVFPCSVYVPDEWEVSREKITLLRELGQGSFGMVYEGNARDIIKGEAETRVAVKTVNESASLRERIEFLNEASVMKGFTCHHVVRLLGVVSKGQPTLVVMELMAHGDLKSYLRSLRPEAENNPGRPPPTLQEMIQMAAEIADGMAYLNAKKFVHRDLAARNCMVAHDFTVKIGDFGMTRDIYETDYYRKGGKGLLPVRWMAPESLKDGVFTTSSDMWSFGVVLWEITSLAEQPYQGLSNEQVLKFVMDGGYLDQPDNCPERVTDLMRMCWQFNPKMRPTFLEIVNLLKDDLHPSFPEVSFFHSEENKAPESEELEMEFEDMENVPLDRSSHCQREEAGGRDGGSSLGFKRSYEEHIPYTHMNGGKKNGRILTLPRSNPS
T4 sequence (P08069 31-736 limits assumed): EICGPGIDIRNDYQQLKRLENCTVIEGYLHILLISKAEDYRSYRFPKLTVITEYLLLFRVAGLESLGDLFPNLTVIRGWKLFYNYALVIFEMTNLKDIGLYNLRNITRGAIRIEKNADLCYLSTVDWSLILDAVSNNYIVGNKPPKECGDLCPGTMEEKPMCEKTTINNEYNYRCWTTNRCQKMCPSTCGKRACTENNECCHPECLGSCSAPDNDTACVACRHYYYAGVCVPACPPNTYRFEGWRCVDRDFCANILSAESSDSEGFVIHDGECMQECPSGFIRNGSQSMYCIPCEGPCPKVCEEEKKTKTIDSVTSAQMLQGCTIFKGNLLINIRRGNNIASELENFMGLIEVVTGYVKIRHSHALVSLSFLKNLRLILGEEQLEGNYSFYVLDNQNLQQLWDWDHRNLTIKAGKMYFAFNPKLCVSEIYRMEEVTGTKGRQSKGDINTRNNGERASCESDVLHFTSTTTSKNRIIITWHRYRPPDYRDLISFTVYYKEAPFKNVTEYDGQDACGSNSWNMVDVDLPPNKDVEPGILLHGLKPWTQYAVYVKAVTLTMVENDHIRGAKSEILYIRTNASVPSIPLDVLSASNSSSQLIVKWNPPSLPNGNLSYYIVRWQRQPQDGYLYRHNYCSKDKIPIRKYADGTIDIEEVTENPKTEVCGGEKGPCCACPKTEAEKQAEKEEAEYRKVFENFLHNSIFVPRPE
T4 sequence (P08069 741-1367 limits assumed): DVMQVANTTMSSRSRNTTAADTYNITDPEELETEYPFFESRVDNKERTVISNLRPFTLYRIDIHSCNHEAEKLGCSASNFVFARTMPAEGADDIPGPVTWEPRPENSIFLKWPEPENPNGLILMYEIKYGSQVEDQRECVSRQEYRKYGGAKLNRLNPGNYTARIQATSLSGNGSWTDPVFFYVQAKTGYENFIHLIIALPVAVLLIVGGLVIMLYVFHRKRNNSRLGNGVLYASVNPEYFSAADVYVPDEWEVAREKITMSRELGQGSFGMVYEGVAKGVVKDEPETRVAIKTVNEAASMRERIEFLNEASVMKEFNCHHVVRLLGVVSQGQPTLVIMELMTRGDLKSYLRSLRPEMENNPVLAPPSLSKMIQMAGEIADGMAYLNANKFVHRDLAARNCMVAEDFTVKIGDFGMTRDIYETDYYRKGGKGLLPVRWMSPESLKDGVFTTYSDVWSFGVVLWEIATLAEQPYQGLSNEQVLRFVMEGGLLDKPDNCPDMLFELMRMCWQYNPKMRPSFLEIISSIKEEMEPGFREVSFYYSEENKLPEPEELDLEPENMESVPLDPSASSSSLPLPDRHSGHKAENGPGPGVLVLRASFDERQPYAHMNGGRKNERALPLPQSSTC
Chain of Cyclin-dependent kinase 4 (Homo sapiens) (P11802 whole entry): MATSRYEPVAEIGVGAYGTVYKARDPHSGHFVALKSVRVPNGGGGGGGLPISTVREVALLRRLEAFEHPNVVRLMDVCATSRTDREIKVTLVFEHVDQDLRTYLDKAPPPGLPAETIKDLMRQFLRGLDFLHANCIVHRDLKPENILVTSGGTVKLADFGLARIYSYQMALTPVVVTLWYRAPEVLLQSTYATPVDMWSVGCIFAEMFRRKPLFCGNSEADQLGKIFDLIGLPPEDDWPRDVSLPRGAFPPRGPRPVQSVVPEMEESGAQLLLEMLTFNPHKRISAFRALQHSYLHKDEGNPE
Chain of Proto-oncogene tyrosine-protein kinase receptor Ret (P07949 whole entry): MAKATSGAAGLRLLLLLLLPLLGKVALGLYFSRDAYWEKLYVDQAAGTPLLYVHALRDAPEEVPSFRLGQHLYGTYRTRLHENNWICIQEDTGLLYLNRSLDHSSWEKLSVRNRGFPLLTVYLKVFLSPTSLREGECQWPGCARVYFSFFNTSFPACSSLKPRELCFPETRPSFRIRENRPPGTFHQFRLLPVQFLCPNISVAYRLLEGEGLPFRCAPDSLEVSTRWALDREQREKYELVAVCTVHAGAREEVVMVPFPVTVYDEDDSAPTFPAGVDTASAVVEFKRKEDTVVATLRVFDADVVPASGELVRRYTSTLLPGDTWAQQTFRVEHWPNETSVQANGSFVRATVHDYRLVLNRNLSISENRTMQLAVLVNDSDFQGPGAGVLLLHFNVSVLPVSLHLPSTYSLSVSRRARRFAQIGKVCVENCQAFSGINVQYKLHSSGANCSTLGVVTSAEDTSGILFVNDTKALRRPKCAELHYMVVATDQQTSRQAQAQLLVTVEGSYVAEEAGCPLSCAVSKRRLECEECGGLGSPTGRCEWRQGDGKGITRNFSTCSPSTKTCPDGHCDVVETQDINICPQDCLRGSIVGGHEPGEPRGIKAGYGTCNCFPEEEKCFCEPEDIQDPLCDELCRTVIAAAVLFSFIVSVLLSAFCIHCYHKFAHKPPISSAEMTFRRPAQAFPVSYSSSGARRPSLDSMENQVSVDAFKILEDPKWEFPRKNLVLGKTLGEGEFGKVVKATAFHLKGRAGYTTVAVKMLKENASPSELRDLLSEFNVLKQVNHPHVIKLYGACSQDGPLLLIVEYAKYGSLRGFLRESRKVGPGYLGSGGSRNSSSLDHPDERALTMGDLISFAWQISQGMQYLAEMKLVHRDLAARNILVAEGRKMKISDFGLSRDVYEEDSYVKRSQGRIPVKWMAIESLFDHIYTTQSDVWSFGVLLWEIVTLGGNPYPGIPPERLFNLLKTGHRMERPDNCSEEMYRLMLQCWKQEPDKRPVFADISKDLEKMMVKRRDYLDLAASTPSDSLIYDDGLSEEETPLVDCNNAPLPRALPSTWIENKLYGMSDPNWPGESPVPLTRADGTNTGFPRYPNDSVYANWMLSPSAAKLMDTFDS
Chain of Aurora kinase B (Q96GD4 whole entry): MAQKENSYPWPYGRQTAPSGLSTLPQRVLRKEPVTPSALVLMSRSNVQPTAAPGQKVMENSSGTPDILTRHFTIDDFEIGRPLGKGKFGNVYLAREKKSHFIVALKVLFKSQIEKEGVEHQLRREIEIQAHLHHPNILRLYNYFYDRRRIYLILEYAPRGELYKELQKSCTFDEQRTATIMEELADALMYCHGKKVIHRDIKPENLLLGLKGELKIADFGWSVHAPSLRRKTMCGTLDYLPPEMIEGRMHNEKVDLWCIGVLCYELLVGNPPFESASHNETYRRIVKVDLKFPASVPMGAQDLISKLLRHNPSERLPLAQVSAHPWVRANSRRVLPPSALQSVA

In the case of `Cc1nc(Nc2cnn(C3CCNCC3)c2)nc2c1N(C)C(=O)c1ccccc1N2C`, in test [1], the IC50 was determined as 17 nM. Same read-out and setting: for `Cc1cc(Nc2ncc3c(n2)N(C)c2ccccc2C(=O)N3C)ccc1C(=O)N1CCN(C)CC1` the value was 6 nM; for `CCC(=O)Nc1cccc(Oc2nc(Nc3ccc(N4CCN(C)CC4)cc3OC)ncc2Cl)c1`, 1.5 nM. Consider `C[C@@H](O)[C@@H](C)Oc1nc(Nc2ccc([S@](=N)(=O)C3CC3)cc2)ncc1C(F)(F)F` [RONICICLIB], for which the IC50 in test [2] is less than 10 nM. The molecule `O=C(NCCCNc1nc(Nc2cccc(NC(=O)N3CCCC3)c2)ncc1I)c1cccs1` [BX-795] yielded a concentration for half-maximal inhibition (IC50) in [2] of 5 nM. Take `C=CC(=O)Nc1cccc(Oc2nc(Nc3ccc(N4CCN(C)CC4)cc3)nc3[nH]cnc23)c1`: in test [1], the IC50 is 33 nM. As for `Cc1ccc2c(c1)C(=O)N(C)c1cnc(Nc3ccc4c(c3)NC(=O)CC4)nc1N2C`, the IC50 amounted to 15 nM in test [1] and 2000 nM in test [3]. On to `Cc1cc(Nc2nc(NC(C)c3ccc(F)cc3)c(C#N)cc2F)n[nH]1` (stereo not drawn), for which the inhibition turned out to be 3% in test [4], 35% in [5] and 6% in [6]. In the case of `CN1CCN(c2ccc(Nc3ncc4cc(C#N)c(=O)n(C5CCCC5)c4n3)cc2)CC1` [NARAZACICLIB], the half-maximal inhibitory concentration (IC50) in test [7] was 3.9 nM; in test [8] it was 9.2 nM. `CCCC(=O)Nc1cccc(Oc2nc(Nc3ccc(N4CCN(C)CC4)cc3OC)ncc2I)c1` registered an IC50 in test [9] of 126 nM. For the molecule `Fc1ccc(Cn2cnc3cc(Cl)c(Nc4cc(C5CC5)[nH]n4)nc32)cc1`, the midpoint of inhibition in [2], the IC50, lay at 34.9 nM. As to `C=CC(=O)Nc1cccc(Oc2nc(Nc3ccc(N4CCN(C)CC4)cc3OC)ncc2Cl)c1`, the IC50 in [1] stood at 25 nM.

`COc1cccc(OCCCN)c1-c1cc(Nc2cnc(C#N)cn2)n[nH]1` [PREXASERTIB] returned an IC50 in [2] of 64 nM. `CC(C)(C)NS(=O)(=O)c1cccc(Nc2nc(Nc3cnn(C4CCNCC4)c3)ncc2Cl)c1`: the IC50 in test [1] was determined as 67 nM. For `COCCN1CCN(CCn2ccc(Nc3ncc4c(n3)C(C)Cc3nn(C)c(-c5ccccc5)c3-4)n2)CC1` (stereo not drawn), the IC50 was found to be 411 nM in test [2], 1 nM in test [10] and 1 nM against Insulin receptor [11]. Besides, the Kd in test [12] is 9 nM; at Insulin receptor [13], 12 nM. `O=C(NCCCNc1nc(Nc2cccc(CN3CCOCC3)c2)ncc1C1CC1)C1CCC1` showed an IC50 in [9] of 2600 nM. Take `CN1C(=O)c2cc3ccccc3cc2N(C)c2nc(Nc3cnn(C4CCNCC4)c3)ncc21`: the IC50 in test [14] was 10000 nM; on Aurora kinase C it was 120 nM; at Aurora kinase B, 54 nM. `Cc1ccc2c(c1)C(=O)N(C)c1cnc(Nc3cnn(C4CCNCC4)c3)nc1N2C`: the IC50 in test [1] was 7 nM.

For the origin of these results see ChEMBL document CHEMBL5096150, “Development and Therapeutic Potential of NUAKs Inhibitors” (J Med Chem, 2021).
